# Measurements from ChEMBL document CHEMBL5247649, “Comparative Efficacy and Selectivity of Pharmacological Inhibitors of DYRK and CLK Protein Kinases” (J Med Chem, 2023).
# Key:
# in vitro = details: mouse, ht-22
# [1] = biological target: Dual specificity protein kinase CLK4 (Homo sapiens, UniProt Q9HAZ1); assay: biochemical
# [2] = biological target: T1, Dual specificity tyrosine-phosphorylation-regulated kinase 2 (Homo sapiens, UniProt Q92630); assay: biochemical; type: cell-based, Sf9
# T1 sequence (Q92630 whole entry): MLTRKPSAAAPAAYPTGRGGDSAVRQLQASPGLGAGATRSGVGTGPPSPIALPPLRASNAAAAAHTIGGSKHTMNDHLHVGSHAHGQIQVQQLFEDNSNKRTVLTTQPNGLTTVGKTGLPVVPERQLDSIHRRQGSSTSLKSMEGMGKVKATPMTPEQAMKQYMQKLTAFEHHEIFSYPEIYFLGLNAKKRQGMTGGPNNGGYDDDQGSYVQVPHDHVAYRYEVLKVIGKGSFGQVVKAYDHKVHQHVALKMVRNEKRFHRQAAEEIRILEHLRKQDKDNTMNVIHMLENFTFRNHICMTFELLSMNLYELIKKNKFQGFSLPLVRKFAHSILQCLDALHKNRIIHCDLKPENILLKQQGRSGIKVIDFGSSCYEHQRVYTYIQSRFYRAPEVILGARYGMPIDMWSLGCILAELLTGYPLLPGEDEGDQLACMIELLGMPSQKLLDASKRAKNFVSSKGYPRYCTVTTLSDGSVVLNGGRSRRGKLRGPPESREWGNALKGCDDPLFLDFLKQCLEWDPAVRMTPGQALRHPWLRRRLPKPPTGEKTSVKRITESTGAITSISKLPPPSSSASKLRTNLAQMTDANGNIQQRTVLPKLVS
# [3] = biological target: T2, Dual specificity tyrosine-phosphorylation-regulated kinase 3 (Homo sapiens, UniProt O43781); assay: biochemical; type: cell-based, Sf9
# T2 sequence (O43781 whole entry): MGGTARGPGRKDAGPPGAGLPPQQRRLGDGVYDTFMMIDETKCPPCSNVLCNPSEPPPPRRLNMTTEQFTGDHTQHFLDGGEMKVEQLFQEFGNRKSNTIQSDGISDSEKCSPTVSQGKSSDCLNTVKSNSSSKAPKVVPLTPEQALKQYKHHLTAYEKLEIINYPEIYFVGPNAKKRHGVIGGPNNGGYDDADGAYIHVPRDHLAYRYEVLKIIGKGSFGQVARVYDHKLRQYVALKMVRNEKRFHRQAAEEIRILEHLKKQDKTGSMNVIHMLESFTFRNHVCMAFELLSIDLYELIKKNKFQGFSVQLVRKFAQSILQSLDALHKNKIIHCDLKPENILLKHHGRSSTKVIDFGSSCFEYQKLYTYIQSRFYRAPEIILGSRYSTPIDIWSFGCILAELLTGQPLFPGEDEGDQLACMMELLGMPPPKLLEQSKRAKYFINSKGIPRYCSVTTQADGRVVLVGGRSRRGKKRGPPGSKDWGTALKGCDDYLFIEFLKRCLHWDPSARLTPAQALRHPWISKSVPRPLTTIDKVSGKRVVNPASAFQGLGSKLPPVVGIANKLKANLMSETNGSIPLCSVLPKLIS
# [4] = biological target: Cyclin-dependent kinase 5/CDK5 activator 1 (Homo sapiens, UniProt Q00535); assay: biochemical; type: cell-based, Sf9
# [5] = biological target: Dual specificity protein kinase CLK3 (Homo sapiens, UniProt P49761); assay: biochemical; type: cell-based, Sf9
# [6] = biological target: Glycogen synthase kinase-3 beta (Homo sapiens, UniProt P49841); assay: biochemical; type: cell-based, Sf9
# [7] = biological target: T3, Dual specificity tyrosine-phosphorylation-regulated kinase 1A (Homo sapiens, UniProt Q13627); assay: biochemical
# [8] = biological target: T3, Dual specificity tyrosine-phosphorylation-regulated kinase 1A
# [9] = biological target: Dual specificity protein kinase CLK2 (Homo sapiens, UniProt P49760); assay: biochemical
# [10] = biological target: T4, Dual specificity protein kinase CLK1 (Homo sapiens, UniProt P49759); assay: biochemical; type: cell-based, Sf9; details: read-out: IC50
# [11] = biological target: T5, Dual specificity tyrosine-phosphorylation-regulated kinase 4 (Homo sapiens, UniProt Q9NR20); assay: biochemical; type: cell-based, Sf9
# T5 sequence (Q9NR20 whole entry): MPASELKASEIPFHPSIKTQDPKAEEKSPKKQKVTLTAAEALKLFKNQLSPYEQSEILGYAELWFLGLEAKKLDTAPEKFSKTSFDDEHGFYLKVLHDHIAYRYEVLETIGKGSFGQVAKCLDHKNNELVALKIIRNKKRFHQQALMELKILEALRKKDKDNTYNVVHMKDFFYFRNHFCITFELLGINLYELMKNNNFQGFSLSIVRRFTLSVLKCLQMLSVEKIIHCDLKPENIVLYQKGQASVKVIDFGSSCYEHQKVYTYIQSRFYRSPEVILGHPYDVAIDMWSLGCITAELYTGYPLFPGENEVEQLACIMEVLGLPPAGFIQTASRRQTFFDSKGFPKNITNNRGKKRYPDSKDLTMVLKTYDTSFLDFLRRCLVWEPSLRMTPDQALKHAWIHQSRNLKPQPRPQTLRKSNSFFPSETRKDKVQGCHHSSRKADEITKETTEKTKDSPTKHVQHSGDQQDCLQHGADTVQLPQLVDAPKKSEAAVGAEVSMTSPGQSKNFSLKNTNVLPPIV
# [12] = biological target: Casein kinase I isoform epsilon (Homo sapiens, UniProt P49674); assay: biochemical; type: cell-based, Sf9
# [13] = biological target: T4, Dual specificity protein kinase CLK1; assay: biochemical; type: cell-based, Sf9
# Cyclin-dependent kinase 5/CDK5 activator 1, sequence (Q00535 whole entry): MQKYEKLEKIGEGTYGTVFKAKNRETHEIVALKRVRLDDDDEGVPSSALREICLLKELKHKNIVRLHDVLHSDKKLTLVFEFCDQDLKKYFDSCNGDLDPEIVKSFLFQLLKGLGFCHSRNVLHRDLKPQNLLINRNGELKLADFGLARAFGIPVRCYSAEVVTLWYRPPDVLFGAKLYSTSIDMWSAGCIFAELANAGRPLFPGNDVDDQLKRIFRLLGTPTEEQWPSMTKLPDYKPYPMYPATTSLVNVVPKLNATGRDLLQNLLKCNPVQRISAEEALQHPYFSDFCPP
# Cyclin-dependent kinase 5/CDK5 activator 1, sequence (Q15078 whole entry, further chain): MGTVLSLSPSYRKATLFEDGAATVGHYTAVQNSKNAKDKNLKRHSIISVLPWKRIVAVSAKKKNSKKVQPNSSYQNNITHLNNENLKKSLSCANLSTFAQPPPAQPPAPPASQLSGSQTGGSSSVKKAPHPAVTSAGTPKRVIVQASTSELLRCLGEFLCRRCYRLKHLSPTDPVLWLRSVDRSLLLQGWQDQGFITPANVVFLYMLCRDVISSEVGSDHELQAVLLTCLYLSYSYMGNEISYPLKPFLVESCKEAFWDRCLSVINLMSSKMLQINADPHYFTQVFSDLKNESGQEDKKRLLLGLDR
# T4 sequence (P49759 whole entry): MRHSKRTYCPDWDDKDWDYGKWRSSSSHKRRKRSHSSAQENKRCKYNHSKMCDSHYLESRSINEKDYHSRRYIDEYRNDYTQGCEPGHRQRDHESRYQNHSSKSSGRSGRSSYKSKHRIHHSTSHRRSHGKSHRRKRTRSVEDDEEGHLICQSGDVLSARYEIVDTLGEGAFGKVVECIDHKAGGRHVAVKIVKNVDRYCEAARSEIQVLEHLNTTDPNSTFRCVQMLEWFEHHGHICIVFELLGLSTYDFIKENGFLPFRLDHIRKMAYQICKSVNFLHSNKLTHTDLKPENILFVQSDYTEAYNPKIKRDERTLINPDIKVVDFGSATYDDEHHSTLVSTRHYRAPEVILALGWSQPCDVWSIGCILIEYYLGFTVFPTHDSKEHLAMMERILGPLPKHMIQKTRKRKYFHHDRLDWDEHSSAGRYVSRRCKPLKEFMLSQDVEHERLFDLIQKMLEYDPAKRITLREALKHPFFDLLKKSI
# Dual specificity protein kinase CLK2, sequence (P49760 whole entry): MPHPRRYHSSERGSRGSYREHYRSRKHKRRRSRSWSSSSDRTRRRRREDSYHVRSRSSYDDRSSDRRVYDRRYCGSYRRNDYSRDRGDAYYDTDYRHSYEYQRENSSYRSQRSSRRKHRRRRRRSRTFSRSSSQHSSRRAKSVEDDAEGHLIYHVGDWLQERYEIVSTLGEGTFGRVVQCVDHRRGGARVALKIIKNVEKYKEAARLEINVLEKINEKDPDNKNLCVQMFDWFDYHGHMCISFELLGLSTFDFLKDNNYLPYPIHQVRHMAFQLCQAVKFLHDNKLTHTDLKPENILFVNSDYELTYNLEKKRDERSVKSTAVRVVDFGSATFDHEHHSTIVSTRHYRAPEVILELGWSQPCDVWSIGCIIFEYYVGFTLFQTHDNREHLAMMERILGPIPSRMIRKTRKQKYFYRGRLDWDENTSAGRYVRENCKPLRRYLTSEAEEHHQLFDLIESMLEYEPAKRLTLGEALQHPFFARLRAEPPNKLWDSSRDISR
# Dual specificity protein kinase CLK4, sequence (Q9HAZ1 whole entry): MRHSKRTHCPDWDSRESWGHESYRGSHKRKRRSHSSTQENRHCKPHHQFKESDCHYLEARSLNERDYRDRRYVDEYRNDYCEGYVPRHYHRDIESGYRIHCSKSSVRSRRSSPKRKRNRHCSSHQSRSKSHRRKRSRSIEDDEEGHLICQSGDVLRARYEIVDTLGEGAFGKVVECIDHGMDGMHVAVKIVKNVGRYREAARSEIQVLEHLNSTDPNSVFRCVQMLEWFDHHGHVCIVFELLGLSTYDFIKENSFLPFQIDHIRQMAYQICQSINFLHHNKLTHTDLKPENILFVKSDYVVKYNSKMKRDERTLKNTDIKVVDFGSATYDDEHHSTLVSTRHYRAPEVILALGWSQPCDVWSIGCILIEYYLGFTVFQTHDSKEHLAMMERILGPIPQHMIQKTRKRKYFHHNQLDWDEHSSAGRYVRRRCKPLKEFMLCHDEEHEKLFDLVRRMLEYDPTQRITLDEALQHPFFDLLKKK
# Glycogen synthase kinase-3 beta, sequence (P49841 whole entry): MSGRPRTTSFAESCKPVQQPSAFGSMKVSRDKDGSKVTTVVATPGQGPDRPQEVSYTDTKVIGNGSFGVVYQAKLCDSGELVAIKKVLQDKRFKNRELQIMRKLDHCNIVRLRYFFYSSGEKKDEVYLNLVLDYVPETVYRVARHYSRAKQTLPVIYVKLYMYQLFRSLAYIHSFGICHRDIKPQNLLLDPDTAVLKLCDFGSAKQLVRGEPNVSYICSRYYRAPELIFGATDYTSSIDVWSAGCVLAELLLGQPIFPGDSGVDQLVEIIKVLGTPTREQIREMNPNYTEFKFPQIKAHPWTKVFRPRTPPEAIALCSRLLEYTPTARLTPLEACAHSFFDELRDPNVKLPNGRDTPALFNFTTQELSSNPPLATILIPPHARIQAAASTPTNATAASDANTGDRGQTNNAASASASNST
# Dual specificity protein kinase CLK3, sequence (P49761 whole entry): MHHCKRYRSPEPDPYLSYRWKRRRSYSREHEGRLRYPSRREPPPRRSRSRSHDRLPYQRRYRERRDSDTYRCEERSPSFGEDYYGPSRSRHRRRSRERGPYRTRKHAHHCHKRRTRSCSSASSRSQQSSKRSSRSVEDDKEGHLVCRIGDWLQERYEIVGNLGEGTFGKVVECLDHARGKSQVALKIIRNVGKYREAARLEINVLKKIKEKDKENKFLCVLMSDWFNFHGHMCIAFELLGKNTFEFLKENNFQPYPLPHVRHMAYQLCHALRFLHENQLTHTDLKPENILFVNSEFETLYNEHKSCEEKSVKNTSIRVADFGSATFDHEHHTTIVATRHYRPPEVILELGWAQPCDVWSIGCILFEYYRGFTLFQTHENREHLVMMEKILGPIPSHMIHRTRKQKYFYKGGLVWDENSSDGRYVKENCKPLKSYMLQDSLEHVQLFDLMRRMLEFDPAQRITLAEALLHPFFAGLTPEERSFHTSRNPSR
# Casein kinase I isoform epsilon, sequence (P49674 whole entry, canonical isoform): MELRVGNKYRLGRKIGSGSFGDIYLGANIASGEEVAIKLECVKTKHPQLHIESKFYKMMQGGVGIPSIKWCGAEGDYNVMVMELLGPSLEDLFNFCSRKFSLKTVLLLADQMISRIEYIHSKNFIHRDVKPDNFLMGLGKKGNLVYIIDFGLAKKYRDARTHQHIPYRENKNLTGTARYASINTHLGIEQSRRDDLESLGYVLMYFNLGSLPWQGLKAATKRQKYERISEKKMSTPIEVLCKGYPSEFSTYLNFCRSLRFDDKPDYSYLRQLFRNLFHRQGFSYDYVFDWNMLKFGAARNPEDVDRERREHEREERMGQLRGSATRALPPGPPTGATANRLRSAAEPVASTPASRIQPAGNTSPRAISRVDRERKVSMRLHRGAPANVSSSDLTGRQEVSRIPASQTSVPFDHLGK
IC50 at 48 h (in vitro),IC50 [1],IC50 [2],IC50 [3],IC50 [4],IC50 [5],IC50 [6],IC50 [7],IC50 [9],IC50 [11],IC50 [12],IC50 [13],Compound,IC50 [8],IC50 [10]
7.9 µM,0.0491 µM,> 10 µM,> 10 µM,> 10 µM,0.74 µM,> 10 µM,0.253 µM,0.147 µM,> 10 µM,> 10 µM,0.107 µM,CN1CCN(C(=O)C(C)(C)c2ccc(C(=O)Cc3cn4cc(-c5ccncc5)ccc4n3)cc2)CC1,0.0728 µM,0.121 µM
8.1 µM,0.672 µM,> 10 µM,> 10 µM,> 10 µM,2.41 µM,1.33 µM,8.26 µM,0.772 µM,> 10 µM,> 10 µM,0.607 µM,CCN(CC)Cc1ccc(OC)c(-c2cc3c(-c4ccc(C(=O)O)c(C(C)C)c4)ccnc3[nH]2)c1,–,–
1 µM,> 10 µM,1.75 µM,> 10 µM,> 10 µM,> 10 µM,> 10 µM,3.09 µM,> 10 µM,> 10 µM,4.38 µM,6.07 µM,O=C1Nc2cc(S(=O)(=O)Cc3c(Cl)cccc3Cl)ccc2S/C1=C\c1ccc(O)c([N+](=O)[O-])c1,–,–

Compound,IC50 at 48 h (in vitro),IC50 [1],IC50 [2],IC50 [3],IC50 [4],IC50 [5],IC50 [6],IC50 [7],IC50 [9],IC50 [11],IC50 [12],IC50 [13],IC50 [8],IC50 [10]
O=C(O[C@@H]1Cc2c(O)cc(O)cc2O[C@@H]1c1cc(O)c(O)c(O)c1)c1cc(O)c(O)c(O)c1 [EPIGALOCATECHIN GALLATE],23.8 µM,0.368 µM,2 µM,1.62 µM,0.431 µM,2.58 µM,6.27 µM,0.491 µM,1.32 µM,5.2 µM,0.365 µM,0.0716 µM,0.766 µM,> 10 µM
